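Cultured in 96-well plates, cells were exposed to test compound for 48 hours across five concentrations. GI50 marks 50% less growth. TGI marks complete inhibition of growth.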
How the values were obtained:
Assay in all cases: DTP human tumour cell line panel, 48 h
[1] = system: 786-0 renal
[2] = system: A498 renal
[3] = system: A549 NSCLC
[4] = system: ACHN renal
[5] = system: BT-549 breast
[6] = system: CAKI-1 renal
[7] = system: CCRF-CEM leukemia
[8] = system: COLO 205 colon
[9] = system: EKVX NSCLC
[10] = system: HCT-116 colon
[11] = system: HCT-15 colon
[12] = system: HOP-62 NSCLC
[13] = system: HOP-92 NSCLC
[14] = system: HS 578T breast
[15] = system: HT29 colon
[16] = system: IGROV1 ovarian
[17] = system: K-562 leukemia
[18] = system: KM12 colon
[19] = system: LOX IMVI melanoma
[20] = system: M14 melanoma
[21] = system: MALME-3M melanoma
[22] = system: MCF7 breast
[23] = system: MDA-MB-231 breast
[24] = system: MDA-MB-435
[25] = system: MOLT-4 leukemia
[26] = system: NCI-H226 lung
[27] = system: NCI-H23 lung
[28] = system: NCI-H460 lung
[29] = system: NCI-H522 lung
[30] = system: NCI/ADR-RES ovarian
[31] = system: OVCAR-3 ovarian
[32] = system: OVCAR-4 ovarian
[33] = system: OVCAR-5 ovarian
[34] = system: OVCAR-8 ovarian
[35] = system: PC-3 prostate
[36] = system: RPMI-8226 leukemia
[37] = system: RXF 393 renal
[38] = system: SF-268 CNS
[39] = system: SF-295 CNS
[40] = system: SF-539 CNS
[41] = system: SK-MEL-2 melanoma
[42] = system: SK-MEL-5 melanoma
[43] = system: SK-OV-3 ovarian
[44] = system: SNB-19 CNS
[45] = system: SNB-75 CNS
[46] = system: SR leukemia
[47] = system: SW-620 colon
[48] = system: T-47D breast
[49] = system: TK-10 renal
[50] = system: U251 CNS
[51] = system: UACC-257 melanoma
[52] = system: UACC-62 melanoma
[53] = system: UO-31 renal
[54] = system: DU-145 prostate
[55] = system: HCC-2998 colon
[56] = system: HL-60(TB) leukemia
[57] = system: SK-MEL-28 melanoma
[58] = system: SN12C renal

O=C1CCCn2c(nc3ccccc32)N1
TGI [1]: > 100 µM
TGI [2]: > 100 µM
TGI [3]: > 100 µM
TGI [4]: > 100 µM
TGI [5]: > 100 µM
TGI [6]: > 100 µM
TGI [7]: > 100 µM
TGI [8]: > 100 µM
TGI [9]: > 100 µM
TGI [10]: > 100 µM
TGI [11]: > 100 µM
TGI [12]: > 100 µM
TGI [13]: > 100 µM
TGI [14]: > 100 µM
TGI [15]: > 100 µM
TGI [16]: > 100 µM
TGI [17]: > 100 µM
TGI [18]: > 100 µM
TGI [19]: > 100 µM
TGI [20]: > 100 µM
TGI [21]: > 100 µM
TGI [22]: > 100 µM
TGI [23]: > 100 µM
TGI [24]: > 100 µM
TGI [25]: > 100 µM
TGI [26]: > 100 µM
TGI [27]: > 100 µM
TGI [28]: > 100 µM
TGI [29]: > 100 µM
TGI [30]: > 100 µM
TGI [31]: > 100 µM
TGI [32]: > 100 µM
TGI [33]: > 100 µM
TGI [34]: > 100 µM
TGI [35]: > 100 µM
TGI [36]: > 100 µM
TGI [37]: > 100 µM
TGI [38]: > 100 µM
TGI [39]: > 100 µM
TGI [40]: > 100 µM
TGI [41]: > 100 µM
TGI [42]: > 100 µM
TGI [43]: > 100 µM
TGI [44]: > 100 µM
TGI [45]: > 100 µM
TGI [46]: > 100 µM
TGI [47]: > 100 µM
TGI [48]: > 100 µM
TGI [49]: > 100 µM
TGI [50]: > 100 µM
TGI [51]: > 100 µM
TGI [52]: > 100 µM
TGI [53]: > 100 µM

COc1cc(/C=C/C(=O)c2cc(OC)c(OC)c(OC)c2)ccc1Oc1nc2c(c(=O)n(C)c(=O)n2C)n1C
GI50 [1]: 1.63 µM
TGI [1]: 3.26 µM
GI50 [2]: 2.51 µM
TGI [2]: 10.2 µM
GI50 [3]: 2.2 µM
TGI [3]: 6.52 µM
GI50 [4]: 2.93 µM
TGI [4]: 8.06 µM
GI50 [5]: 1.56 µM
TGI [5]: 3.02 µM
GI50 [6]: 2.22 µM
TGI [6]: 7.92 µM
GI50 [7]: 1.97 µM
TGI [7]: 6.48 µM
GI50 [8]: 1.91 µM
TGI [8]: 3.62 µM
GI50 [54]: 3.92 µM
TGI [54]: 15.5 µM
GI50 [9]: 26.5 µM
TGI [9]: > 100 µM
GI50 [55]: 1.84 µM
TGI [55]: 3.35 µM
GI50 [10]: 0.684 µM
TGI [10]: 2.06 µM
GI50 [11]: 2.56 µM
TGI [11]: > 100 µM
GI50 [56]: 2.17 µM
TGI [56]: 5.32 µM
GI50 [12]: 2.63 µM
TGI [12]: 5.89 µM
GI50 [13]: 2.09 µM
TGI [13]: 5.84 µM
GI50 [14]: 7.93 µM
TGI [14]: > 100 µM
GI50 [15]: 1.87 µM
TGI [15]: 3.9 µM
GI50 [16]: 2.5 µM
TGI [16]: 5.35 µM
GI50 [17]: 2.29 µM
TGI [17]: 8.23 µM
GI50 [18]: 1.62 µM
TGI [18]: 3.16 µM
GI50 [19]: 1.14 µM
TGI [19]: 2.64 µM
GI50 [20]: 1.87 µM
TGI [20]: 4.55 µM
GI50 [22]: 2.2 µM
TGI [22]: 27.6 µM
GI50 [23]: 2.55 µM
TGI [23]: 20.3 µM
GI50 [25]: 2.29 µM
TGI [25]: 6.34 µM
GI50 [26]: 2.98 µM
TGI [26]: 8.43 µM
GI50 [27]: 1.85 µM
TGI [27]: 4.27 µM
GI50 [28]: 2.24 µM
TGI [28]: 6.37 µM
GI50 [29]: 1.43 µM
TGI [29]: 2.81 µM
GI50 [30]: 2.96 µM
TGI [30]: > 100 µM
GI50 [31]: 2.37 µM
TGI [31]: 4.88 µM
GI50 [32]: 2.49 µM
TGI [32]: > 100 µM
GI50 [33]: 2.9 µM
TGI [33]: 7.41 µM
GI50 [34]: 1.73 µM
TGI [34]: 5.2 µM
GI50 [36]: 1.2 µM
TGI [36]: 4.91 µM
GI50 [37]: 2.03 µM
TGI [37]: 3.65 µM
GI50 [38]: 3.29 µM
TGI [38]: 10.2 µM
GI50 [39]: 2.65 µM
TGI [39]: 13 µM
GI50 [40]: 2.73 µM
TGI [40]: 7.74 µM
GI50 [41]: 3.35 µM
TGI [41]: 7.78 µM
GI50 [57]: 2.57 µM
TGI [57]: 7.03 µM
GI50 [42]: 1.75 µM
TGI [42]: 3.33 µM
GI50 [43]: 3.73 µM
TGI [43]: 35.5 µM
GI50 [58]: 2.24 µM
TGI [58]: 7.79 µM
GI50 [44]: 2.71 µM
TGI [44]: 13.5 µM
GI50 [45]: 1.77 µM
TGI [45]: 7.81 µM
GI50 [46]: 1.21 µM
TGI [46]: 4.89 µM
GI50 [47]: 1.6 µM
TGI [47]: 3.46 µM
GI50 [48]: 4.39 µM
TGI [48]: 65.4 µM
GI50 [50]: 1.28 µM
TGI [50]: 2.6 µM
GI50 [51]: 2.05 µM
TGI [51]: 4.63 µM
GI50 [52]: 1.81 µM
TGI [52]: 3.61 µM
GI50 [53]: 1.6 µM
TGI [53]: 3.1 µM
